Earlier results as cited in patent publication US20180371542A1, “OPIOID RECEPTOR BLOCKADE IN TREATING ALCOHOL USE DISORDERS” (MUSC Foundation for Research Development, priority 2017, published 2018).

System: DSM-IV alcohol dependent individuals
Details: all subjects irrespective of genotype; initial report (Schacht et al., 2017)

O=C1CC[C@@]2(O)[C@H]3Cc4ccc(O)c5c4[C@@]2(CCN3CC2CC2)[C@H]1O5 [naltrexone]
Main effect of naltrexone over placebo overall: significant main effect of naltrexone over placebo
